The test deals with T1, SIRT1 (Homo sapiens, UniProt Q96EB6).
T1 sequence (Q96EB6 1-747): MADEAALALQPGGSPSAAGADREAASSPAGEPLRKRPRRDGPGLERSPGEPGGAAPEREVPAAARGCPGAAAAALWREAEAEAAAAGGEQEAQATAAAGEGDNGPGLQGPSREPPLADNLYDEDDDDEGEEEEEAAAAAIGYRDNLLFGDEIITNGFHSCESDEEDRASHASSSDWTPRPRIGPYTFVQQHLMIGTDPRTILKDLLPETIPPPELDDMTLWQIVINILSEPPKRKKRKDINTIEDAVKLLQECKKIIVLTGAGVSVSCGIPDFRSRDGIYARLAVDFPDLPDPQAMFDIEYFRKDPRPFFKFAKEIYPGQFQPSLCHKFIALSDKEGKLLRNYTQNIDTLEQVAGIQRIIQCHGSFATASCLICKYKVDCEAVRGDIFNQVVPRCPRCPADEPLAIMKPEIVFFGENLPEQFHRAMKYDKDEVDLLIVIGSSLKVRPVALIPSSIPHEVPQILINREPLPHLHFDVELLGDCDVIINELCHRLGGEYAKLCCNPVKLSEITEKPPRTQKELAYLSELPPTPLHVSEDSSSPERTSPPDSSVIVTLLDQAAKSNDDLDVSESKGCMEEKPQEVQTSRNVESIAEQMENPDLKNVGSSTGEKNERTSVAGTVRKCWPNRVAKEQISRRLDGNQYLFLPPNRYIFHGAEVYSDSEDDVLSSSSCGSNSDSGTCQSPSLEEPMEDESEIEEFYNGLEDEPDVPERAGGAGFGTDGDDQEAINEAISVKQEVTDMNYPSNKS
Briefly: Mass spectrometry based SIRT1 deacetylation assay (activation). The test is classed as biochemical. The note with it: 10 nM SIRT1, 0.5 μM peptide substrate, 120 μM βNAD+, 25 min at 25° C. The gist of the method: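 Recombinant N-His-tagged SIRT1 (E. coli BL21(DE3)), 10 nM, incubated 25 min at 25 °C with 0.5 μM biotin/5TMR-labelled acetyl-p53-derived 20-mer peptide and 120 μM βNAD+ in Tris-acetate pH 8 buffer with DTT and BSA. Formic acid stop; MS quantifies acetylated vs deacetylated peptide. EC1.5 = concentration giving 150% activation versus DMSO.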
In the case of `O=C(Nc1cccc(Cl)n1)c1cccc2ccc(-c3cccc(C(F)(F)F)c3)nc12` [Compound 89], the “EC1.5 (concentration of test compound that results in 150% activation of SIRT1)” value is “C (EC1.5>25 uM)”.

On to `O=C(O)c1ccc(NC(=O)c2cccc3ccc(-c4cccc(C(F)(F)F)c4)nc23)o1` [Compound 90], for which the “% Fold Act. (percent maximum fold activation)” value is listed as “B (Fold Activation <200%)” and the “EC1.5 (concentration of test compound that results in 150% activation of SIRT1)” value is listed as “B (EC1.5 1-25 uM)”.

As for `CCOC(=O)c1csc(NC(=O)c2cccc3ccc(-c4cccc(C(F)(F)F)c4)nc23)n1` [Compound 91], the “% Fold Act. (percent maximum fold activation)” value is on record as “A (Fold activation >200%)” and the “EC1.5 (concentration of test compound that results in 150% activation of SIRT1)” value is given as “A (EC1.5<1.0 uM)”.

As to `O=C(Nc1cccc2ccc(-c3ccccc3OC(F)(F)F)nc12)c1cscn1` [Compound 92], the “% Fold Act. (percent maximum fold activation)” value was “A (Fold activation >200%)” and the “EC1.5 (concentration of test compound that results in 150% activation of SIRT1)” value was “A (EC1.5<1.0 uM)”.

As to `CS(=O)(=O)c1ccccc1-c1ccc2cccc(NC(=O)c3cscn3)c2n1` [Compound 93], the “% Fold Act. (percent maximum fold activation)” value is recorded as “A (Fold activation >200%)” and the “EC1.5 (concentration of test compound that results in 150% activation of SIRT1)” value is “A (EC1.5<1.0 uM)”.

Regarding `O=C(NC1CCCC1)c1cccc2ccc(-c3cccc(OC4CCNCC4)c3)nc12` [Compound 94], the “% Fold Act. (percent maximum fold activation)” value is on record as “A (Fold activation >200%)” and the “EC1.5 (concentration of test compound that results in 150% activation of SIRT1)” value is listed as “B (EC1.5 1-25 uM)”.

`O=C(NCc1cccnc1)c1cccc2ccc(-c3cccc(OC4CCNCC4)c3)nc12` [Compound 95]: the “% Fold Act. (percent maximum fold activation)” value is on record as “A (Fold activation >200%)” and the “EC1.5 (concentration of test compound that results in 150% activation of SIRT1)” value is on record as “B (EC1.5 1-25 uM)”.

For the compound `O=C(Nc1nccs1)c1cccc2ccc(-c3ccc(C(F)(F)F)cc3)nc12` [Compound 96], the “EC1.5 (concentration of test compound that results in 150% activation of SIRT1)” value is recorded as “C (EC1.5>25 uM)”.

Consider `O=C(Nc1ccccn1)c1cccc2ccc(-c3ccc(C(F)(F)F)cc3)nc12` [Compound 97], for which the “EC1.5 (concentration of test compound that results in 150% activation of SIRT1)” value is “C (EC1.5>25 uM)”.

On to `O=C(Nc1cccnc1)c1cccc2ccc(-c3ccc(C(F)(F)F)cc3)nc12` [Compound 98], for which the “EC1.5 (concentration of test compound that results in 150% activation of SIRT1)” value was “C (EC1.5>25 uM)”.

In the case of `O=C(Nc1ccncn1)c1cccc2ccc(-c3ccc(C(F)(F)F)cc3)nc12` [Compound 99], the “EC1.5 (concentration of test compound that results in 150% activation of SIRT1)” value is on record as “C (EC1.5>25 uM)”.

Turning to `O=C(Nc1cccnn1)c1cccc2ccc(-c3cccc(C(F)(F)F)c3)nc12` [Compound 100], the “% Fold Act. (percent maximum fold activation)” value is given as “A (Fold activation >200%)” and the “EC1.5 (concentration of test compound that results in 150% activation of SIRT1)” value was “A (EC1.5<1.0 uM)”.

For the compound `O=C(O)c1csc(NC(=O)c2cccc3ccc(-c4cccc(C(F)(F)F)c4)nc23)n1` [Compound 101], the “% Fold Act. (percent maximum fold activation)” value is listed as “A (Fold activation >200%)” and the “EC1.5 (concentration of test compound that results in 150% activation of SIRT1)” value is “B (EC1.5 1-25 uM)”.

In the case of `O=C(NC1CCCC1)c1cccc2ccc(-c3cccc(O[C@@H]4CCNC4)c3)nc12` [Compound 102], the “% Fold Act. (percent maximum fold activation)” value was “A (Fold activation >200%)” and the “EC1.5 (concentration of test compound that results in 150% activation of SIRT1)” value is reported as “B (EC1.5 1-25 uM)”.

Regarding `O=C(NCc1ccncc1)c1cccc2ccc(-c3cccc(O[C@@H]4CCNC4)c3)nc12` [Compound 103], the “% Fold Act. (percent maximum fold activation)” value is “A (Fold activation >200%)” and the “EC1.5 (concentration of test compound that results in 150% activation of SIRT1)” value is recorded as “B (EC1.5 1-25 uM)”.

As for `FC(F)(F)c1cccc(-c2ccc3cccc(CNc4nccs4)c3n2)c1` [Compound 104], the “EC1.5 (concentration of test compound that results in 150% activation of SIRT1)” value is reported as “C (EC1.5>25 uM)”.

`FC(F)(F)c1cccc(-c2ccc3cccc(CNc4cccnc4)c3n2)c1` [Compound 105]: the “EC1.5 (concentration of test compound that results in 150% activation of SIRT1)” value is recorded as “C (EC1.5>25 uM)”.

`CS(=O)(=O)c1ccc(-c2ccc3cccc(NC(=O)c4cscn4)c3n2)cc1` [Compound 106]: the “% Fold Act. (percent maximum fold activation)” value is listed as “B (Fold Activation <200%)” and the “EC1.5 (concentration of test compound that results in 150% activation of SIRT1)” value is listed as “B (EC1.5 1-25 uM)”.

With `O=C(Nc1cccc2ccc(-c3ccc4c(c3)OCO4)nc12)c1cscn1` [Compound 107], the “% Fold Act. (percent maximum fold activation)” value is “B (Fold Activation <200%)” and the “EC1.5 (concentration of test compound that results in 150% activation of SIRT1)” value is listed as “A (EC1.5<1.0 uM)”.

On to `O=C(Nc1nccs1)c1cccc2ccc(-c3cccc(N4CCOCC4)c3)nc12` [Compound 108], for which the “% Fold Act. (percent maximum fold activation)” value is given as “A (Fold activation >200%)” and the “EC1.5 (concentration of test compound that results in 150% activation of SIRT1)” value is “A (EC1.5<1.0 uM)”.

For `O=C(Nc1ccccn1)c1cccc2ccc(-c3cccc(N4CCOCC4)c3)nc12` [Compound 109], the “% Fold Act. (percent maximum fold activation)” value was “A (Fold activation >200%)” and the “EC1.5 (concentration of test compound that results in 150% activation of SIRT1)” value is recorded as “A (EC1.5<1.0 uM)”.

Take `O=C(Nc1cccnc1)c1cccc2ccc(-c3cccc(N4CCOCC4)c3)nc12` [Compound 110]: the “% Fold Act. (percent maximum fold activation)” value is “A (Fold activation >200%)” and the “EC1.5 (concentration of test compound that results in 150% activation of SIRT1)” value is “A (EC1.5<1.0 uM)”.

As for `O=C(Nc1ccncn1)c1cccc2ccc(-c3cccc(N4CCOCC4)c3)nc12` [Compound 111], the “% Fold Act. (percent maximum fold activation)” value was “A (Fold activation >200%)” and the “EC1.5 (concentration of test compound that results in 150% activation of SIRT1)” value is “A (EC1.5<1.0 uM)”.

For the compound `O=S(=O)(Nc1cccc2ccc(-c3cccc(OC(F)(F)F)c3)nc12)N1CCCC1` [Compound 112], the “EC1.5 (concentration of test compound that results in 150% activation of SIRT1)” value is recorded as “C (EC1.5>25 uM)”.

On to `O=S(=O)(Nc1nccs1)Nc1cccc2ccc(-c3cccc(OC(F)(F)F)c3)nc12` [Compound 113], for which the “EC1.5 (concentration of test compound that results in 150% activation of SIRT1)” value is reported as “C (EC1.5>25 uM)”.

As for `O=S(=O)(Nc1cccnc1)Nc1cccc2ccc(-c3cccc(OC(F)(F)F)c3)nc12` [Compound 114], the “EC1.5 (concentration of test compound that results in 150% activation of SIRT1)” value is “C (EC1.5>25 uM)”.

`O=S(=O)(Nc1cccc2ccc(-c3cccc(OC(F)(F)F)c3)nc12)N1CCNCC1` [Compound 115]: the “% Fold Act. (percent maximum fold activation)” value was “B (Fold Activation <200%)” and the “EC1.5 (concentration of test compound that results in 150% activation of SIRT1)” value is reported as “B (EC1.5 1-25 uM)”.

With `O=C(Nc1nccs1)c1cccc2ncc(-c3ccccc3)nc12` [Compound 116], the “EC1.5 (concentration of test compound that results in 150% activation of SIRT1)” value is reported as “C (EC1.5>25 uM)”.

For `O=C(Nc1cccnc1)c1cccc2ncc(-c3ccccc3)nc12` [Compound 117], the “% Fold Act. (percent maximum fold activation)” value was “B (Fold Activation <200%)” and the “EC1.5 (concentration of test compound that results in 150% activation of SIRT1)” value is given as “B (EC1.5 1-25 uM)”.

Turning to `O=C(Nc1ccccn1)c1cccc2ncc(-c3ccccc3)nc12` [Compound 118], the “% Fold Act. (percent maximum fold activation)” value was “B (Fold Activation <200%)” and the “EC1.5 (concentration of test compound that results in 150% activation of SIRT1)” value is listed as “B (EC1.5 1-25 uM)”.

Take `O=C(Nc1cccc2ccc(-c3cccc(CN4CCCC4)c3)nc12)c1cscn1` [Compound 119]: the “% Fold Act. (percent maximum fold activation)” value is recorded as “A (Fold activation >200%)” and the “EC1.5 (concentration of test compound that results in 150% activation of SIRT1)” value is recorded as “A (EC1.5<1.0 uM)”.

`O=C(Nc1cccc2ccc(-c3cccc(CN4CCOCC4)c3)nc12)c1cscn1` [Compound 120]: the “% Fold Act. (percent maximum fold activation)” value is “A (Fold activation >200%)” and the “EC1.5 (concentration of test compound that results in 150% activation of SIRT1)” value is reported as “A (EC1.5<1.0 uM)”.

With `O=C(Nc1cccc2ccc(-c3cccc(CN4CCNCC4)c3)nc12)c1cscn1` [Compound 121], the “% Fold Act. (percent maximum fold activation)” value was “A (Fold activation >200%)” and the “EC1.5 (concentration of test compound that results in 150% activation of SIRT1)” value is “A (EC1.5<1.0 uM)”.

As to `CN(C)Cc1cccc(-c2ccc3cccc(NC(=O)c4cscn4)c3n2)c1` [Compound 122], the “% Fold Act. (percent maximum fold activation)” value is “A (Fold activation >200%)” and the “EC1.5 (concentration of test compound that results in 150% activation of SIRT1)” value is given as “A (EC1.5<1.0 uM)”.

`O=C(Nc1nccs1)c1cccc2ncc(-c3cccc(C(F)(F)F)c3)nc12` [Compound 123]: the “EC1.5 (concentration of test compound that results in 150% activation of SIRT1)” value is given as “C (EC1.5>25 uM)”.

Consider `O=C(Nc1cccnc1)c1cccc2ncc(-c3cccc(C(F)(F)F)c3)nc12` [Compound 124], for which the “% Fold Act. (percent maximum fold activation)” value is “B (Fold Activation <200%)” and the “EC1.5 (concentration of test compound that results in 150% activation of SIRT1)” value is “A (EC1.5<1.0 uM)”.

For the compound `O=C(Nc1nccs1)c1cccc2ncc(-c3cccc(OC(F)(F)F)c3)nc12` [Compound 125], the “EC1.5 (concentration of test compound that results in 150% activation of SIRT1)” value is “C (EC1.5>25 uM)”.

Consider `O=C(Nc1cccnc1)c1cccc2ncc(-c3cccc(OC(F)(F)F)c3)nc12` [Compound 126], for which the “% Fold Act. (percent maximum fold activation)” value is recorded as “B (Fold Activation <200%)” and the “EC1.5 (concentration of test compound that results in 150% activation of SIRT1)” value was “B (EC1.5 1-25 uM)”.

In the case of `O=C(Nc1ccccn1)c1cccc2ncc(-c3cccc(OC(F)(F)F)c3)nc12` [Compound 127], the “EC1.5 (concentration of test compound that results in 150% activation of SIRT1)” value is “C (EC1.5>25 uM)”.
